Test results published in ChEMBL document CHEMBL4043194, “Nrf2 activators from Glycyrrhiza inflata and their hepatoprotective activities against CCl4-induced liver injury in mice” (Bioorg Med Chem, 2017).
The source made the active and inactive calls. No cut-off for these calls is given here.

What was measured:
[1] = molecular target: T1, Nuclear factor erythroid 2-related factor 2 (Homo sapiens) (UniProt Q16236); experiment: Activation of Nrf2 (unknown origin) expressed in human HepG2 cells at 2.5 to 10 uM incubated for 6 hrs by ARE-driven luciferase reporter gene assay; assay type: cell-based
T1 sequence (whole entry): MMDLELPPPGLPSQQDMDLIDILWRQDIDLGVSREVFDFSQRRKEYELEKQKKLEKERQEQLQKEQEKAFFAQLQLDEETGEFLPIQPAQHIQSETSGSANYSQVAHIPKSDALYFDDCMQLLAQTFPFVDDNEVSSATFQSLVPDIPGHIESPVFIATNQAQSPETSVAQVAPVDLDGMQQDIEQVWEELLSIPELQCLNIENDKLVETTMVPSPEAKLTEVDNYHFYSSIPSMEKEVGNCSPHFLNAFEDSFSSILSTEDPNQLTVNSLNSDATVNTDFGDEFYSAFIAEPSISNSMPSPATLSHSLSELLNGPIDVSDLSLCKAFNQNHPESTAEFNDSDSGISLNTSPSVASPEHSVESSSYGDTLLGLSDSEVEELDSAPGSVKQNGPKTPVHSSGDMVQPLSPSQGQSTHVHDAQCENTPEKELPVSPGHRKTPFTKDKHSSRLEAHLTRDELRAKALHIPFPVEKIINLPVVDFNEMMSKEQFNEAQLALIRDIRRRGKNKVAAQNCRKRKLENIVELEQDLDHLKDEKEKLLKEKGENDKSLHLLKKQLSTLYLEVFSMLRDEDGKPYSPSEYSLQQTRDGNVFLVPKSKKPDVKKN

[2] = molecular target: T1, Nuclear factor erythroid 2-related factor 2 (Homo sapiens); experiment: Activation of Nrf2 (unknown origin) expressed in human HepG2 cells at 10 uM incubated for 6 hrs by ARE-driven luciferase reporter gene assay relative to untreated control; assay type: cell-based
[3] = system: HepG2; experiment: Cytotoxicity in human HepG2 cells expressing Nrf2/ARE-driven luciferase at 10 to 40 uM incubated for 6 hrs; assay type: cell-based; conditions: hepg2, 6 h
[4] = molecular target: T1, Nuclear factor erythroid 2-related factor 2 (Homo sapiens); experiment: Activation of Nrf2 (unknown origin) expressed in human HepG2 cells at 2.5 to 20 uM incubated for 6 hrs by ARE-driven luciferase reporter gene assay; assay type: cell-based
[5] = system: HepG2; experiment: Cytotoxicity in human HepG2 cells expressing Nrf2/ARE-driven luciferase at 20 to 40 uM incubated for 6 hrs; assay type: cell-based; conditions: hepg2, 6 h
[6] = system: Mus musculus; experiment: Hepatoprotective activity against CCL4-induced liver damage in ICR mouse assessed as alanine aminotransferase level at 100 mg/kg, po administered once daily for 7 consecutive days followed by CCL4 challenge 6 hrs after last dose and measured 24 hrs post CCL4 injection (reference value: 1025 U/L); assay type: functional, organism-based
[7] = system: Mus musculus; experiment: Hepatoprotective activity against CCL4-induced liver damage in ICR mouse assessed as aspartate aminotransferase level at 100 mg/kg, po administered once daily for 7 consecutive days followed by CCL4 challenge 6 hrs after last dose and measured 24 hrs post CCL4 injection (reference value: 625 U/L); assay type: functional, organism-based
[8] = system: Mus musculus; experiment: Hepatoprotective activity against CCL4-induced liver damage in ICR mouse assessed as LDH level at 100 mg/kg, po administered once daily for 7 consecutive days followed by CCL4 challenge 6 hrs after last dose and measured 24 hrs post CCL4 injection (reference value: 2818 U/L); assay type: functional, organism-based
[9] = system: Mus musculus; experiment: Hepatoprotective activity against CCL4-induced liver damage in ICR mouse assessed as reduction in liver lesions by measuring necrosis at 100 mg/kg, po administered once daily for 7 consecutive days followed by CCL4 challenge 6 hrs after last dose and measured 24 hrs post CCL4 injection by hematoxylin-eosin staining based light microscopy; assay type: functional, organism-based
[10] = system: Mus musculus; experiment: Hepatoprotective activity against CCL4-induced liver damage in ICR mouse assessed as reduction in liver lesions by measuring ballooning degeneration at 100 mg/kg, po administered once daily for 7 consecutive days followed by CCL4 challenge 6 hrs after last dose and measured 24 hrs post CCL4 injection by hematoxylin-eosin staining based light microscopy; assay type: functional, organism-based
[11] = system: Mus musculus; experiment: Hepatoprotective activity against CCL4-induced liver damage in ICR mouse assessed as reduction in liver lesions by measuring neutrophil infiltration at 100 mg/kg, po administered once daily for 7 consecutive days followed by CCL4 challenge 6 hrs after last dose and measured 24 hrs post CCL4 injection by hematoxylin-eosin staining based light microscopy; assay type: functional, organism-based
[12] = molecular target: T1, Nuclear factor erythroid 2-related factor 2 (Homo sapiens); experiment: Activation of Nrf2 (unknown origin) expressed in human HepG2 cells assessed as cytoprotection against CCL4-induced cell injury by measuring increase in cell viability at 2.5 to 20 uM relative to untreated control; assay type: cell-based
[13] = system: Mus musculus; experiment: Hepatoprotective activity against CCL4-induced liver damage in ICR mouse assessed as alanine aminotransferase level at 50 mg/kg, po administered once daily for 7 consecutive days followed by CCL4 challenge 6 hrs after last dose and measured 24 hrs post CCL4 injection (reference value: 1025 U/L); assay type: functional
[14] = system: Mus musculus; experiment: Hepatoprotective activity against CCL4-induced liver damage in ICR mouse assessed as aspartate aminotransferase level at 50 mg/kg, po administered once daily for 7 consecutive days followed by CCL4 challenge 6 hrs after last dose and measured 24 hrs post CCL4 injection (reference value: 625 U/L); assay type: functional
[15] = system: Mus musculus; experiment: Hepatoprotective activity against CCL4-induced liver damage in ICR mouse assessed as LDH level at 50 mg/kg, po administered once daily for 7 consecutive days followed by CCL4 challenge 6 hrs after last dose and measured 24 hrs post CCL4 injection (reference value: 2818 U/L); assay type: functional
[16] = system: Mus musculus; experiment: Hepatoprotective activity against CCL4-induced liver damage in ICR mouse assessed as reduction in liver lesions by measuring necrosis at 50 mg/kg, po administered once daily for 7 consecutive days followed by CCL4 challenge 6 hrs after last dose and measured 24 hrs post CCL4 injection by hematoxylin-eosin staining based light microscopy; assay type: functional, organism-based
[17] = system: Mus musculus; experiment: Hepatoprotective activity against CCL4-induced liver damage in ICR mouse assessed as reduction in liver lesions by measuring ballooning degeneration at 50 mg/kg, po administered once daily for 7 consecutive days followed by CCL4 challenge 6 hrs after last dose and measured 24 hrs post CCL4 injection by hematoxylin-eosin staining based light microscopy; assay type: functional, organism-based
[18] = system: Mus musculus; experiment: Hepatoprotective activity against CCL4-induced liver damage in ICR mouse assessed as reduction in liver lesions by measuring neutrophil infiltration at 50 mg/kg, po administered once daily for 7 consecutive days followed by CCL4 challenge 6 hrs after last dose and measured 24 hrs post CCL4 injection by hematoxylin-eosin staining based light microscopy; assay type: functional, organism-based
[19] = Cmax in Sprague-Dawley rat at 50 mg/kg, po administered as single dose measured after 0.08 to 24 hrs post dose by LC/MS/MS method; assay type: ADME, organism-based; set-up: dose 50 mg/kg, route oral; conditions: in vivo
[20] = Tmax in Sprague-Dawley rat at 50 mg/kg, po administered as single dose measured after 0.08 to 24 hrs post dose by LC/MS/MS method; assay type: ADME, organism-based; conditions: in vivo
[21] = Half life in Sprague-Dawley rat at 50 mg/kg, po administered as single dose measured after 0.08 to 24 hrs post dose by LC/MS/MS method; assay type: ADME, organism-based; conditions: in vivo
[22] = AUC (0 to t) in Sprague-Dawley rat at 50 mg/kg, po administered as single dose measured after 0.08 to 24 hrs post dose by LC/MS/MS method; assay type: ADME, organism-based; set-up: dose 50 mg/kg, time 0.08-24 hr, route oral; conditions: in vivo
[23] = system: Rattus norvegicus; experiment: AUC (0 to infinity) in Sprague-Dawley rat at 50 mg/kg, po administered as single dose measured after 0.08 to 24 hrs post dose by LC/MS/MS method; assay type: ADME, organism-based; set-up: dose 50 mg/kg, time infinity, route oral; conditions: in vivo
[24] = MRT (0 to t) in Sprague-Dawley rat at 50 mg/kg, po administered as single dose measured after 0.08 to 24 hrs post dose by LC/MS/MS method; assay type: ADME, organism-based; conditions: in vivo
[25] = MRT (0 to infinity) in Sprague-Dawley rat at 50 mg/kg, po administered as single dose measured after 0.08 to 24 hrs post dose by LC/MS/MS method; assay type: ADME, organism-based; conditions: in vivo
[26] = system: Rattus norvegicus; experiment: Apparent clearance during terminal phase in Sprague-Dawley rat at 50 mg/kg, po administered as single dose measured after 0.08 to 24 hrs post dose by LC/MS/MS method; assay type: ADME, organism-based; conditions: in vivo
[27] = Apparent volume of distribution during terminal phase in Sprague-Dawley rat at 50 mg/kg, po administered as single dose measured after 0.08 to 24 hrs post dose by LC/MS/MS method; assay type: ADME, organism-based; conditions: in vivo, read-out: Vz/F
[28] = system: Rattus norvegicus; experiment: VRT (0 to t) in Sprague-Dawley rat at 50 mg/kg, po administered as single dose measured after 0.08 to 24 hrs post dose by LC/MS/MS method; assay type: ADME, organism-based; conditions: in vivo
[29] = system: Rattus norvegicus; experiment: VRT (0 to infinity) in Sprague-Dawley rat at 50 mg/kg, po administered as single dose measured after 0.08 to 24 hrs post dose by LC/MS/MS method; assay type: ADME, organism-based; conditions: in vivo

C=CC(C)(C)c1cc(/C=C/C(=O)c2ccc(O)c(O)c2)c(OC)cc1O
Activity [1]: Dose-dependent effect
fold change (FC) [2]: 5.98
Activity [3]: Toxic

COc1c(/C=C/C(=O)c2ccc(O)c(CC=C(C)C)c2)ccc(O)c1O [LICOCHALCONE D]
fold change (FC) [2]: 4.53
Activity [4]: Dose-dependent effect
Activity [5]: Toxic

SILYMARIN
Activity [6]: 70 to 100 U/L
Activity [7]: 150 to 180 U/L
Activity [8]: 800 to 1200 U/L
Activity [9]: Active
Activity [10]: Active
Activity [11]: Active

CC(C)=CCc1c(O)ccc(-c2cc3ccc(O)cc3o2)c1O [2'-O-DEMETHYLBIDWILLOL B]
fold change (FC) [2]: 4.34
Activity [4]: Dose-dependent effect
Activity [5]: Toxic

C=CC(C)(C)c1cc(/C=C/C(=O)c2ccc(O)cc2)c(OC)c(O)c1O
fold change (FC) [2]: 3.09
Activity [4]: Dose-dependent effect
Activity [5]: Toxic

COc1c(/C=C/C(=O)c2ccc(O)cc2)ccc(O)c1O
fold change (FC) [2]: 5.17
Activity [4]: Dose-dependent effect
Activity [5]: Toxic
Activity [12]: > 60%
Activity [13]: 70 - 100 U/L
Activity [14]: 150 - 180 U/L
Activity [15]: 800 - 1200 U/L
Activity [16]: Active
Activity [17]: Active
Activity [18]: Active

C=C(C)[C@H](C)c1cc(/C=C/C(=O)c2ccc(O)cc2)c(OC)cc1O [LICOCHALCONE E]
Activity [1]: Dose-dependent effect
fold change (FC) [2]: 5.94
Activity [3]: Toxic

COc1cc(O)ccc1/C=C/C(=O)c1ccc(O)cc1 [ECHINATIN]
fold change (FC) [2]: 4.09
Activity [4]: Dose-dependent effect
Activity [5]: Toxic
Activity [12]: > 60%
Activity [13]: 70 - 100 U/L
Activity [14]: 150 - 180 U/L
Activity [15]: 800 - 1200 U/L
Activity [16]: Active
Activity [17]: Active
Activity [18]: Active
Cmax [19]: 228 ng/mL
Tmax [20]: 0.5 h
half-life [21]: 7.32 h
AUC(0-t) [22]: 686 ng·h/mL
AUC [23]: 1154.92 ng·h/mL
MRT last [24]: 3.98 h
MRT inf [25]: 3.98 h
CLz/F [26]: 349.5 mL/min/kg
Vd/F [27]: 154 L/kg
VRT(t) [28]: 9.97 hr2
VRT [29]: 217.15 hr2

C=CC(C)(C)c1cc(/C=C/C(=O)c2ccc(O)cc2)c(OC)cc1O [LICOAGROCHACONE A]
Activity [1]: Dose-dependent effect
fold change (FC) [2]: 4.07
Activity [3]: Toxic
Activity [12]: > 60%
Activity [13]: 70 - 100 U/L
Activity [14]: 150 - 180 U/L
Activity [15]: 800 - 1200 U/L
Activity [16]: Active
Activity [17]: Active
Activity [18]: Active
Cmax [19]: 96.8 ng/mL
Tmax [20]: 2.5 h
half-life [21]: 10.3 h
AUC(0-t) [22]: 837 ng·h/mL
AUC [23]: 993.88 ng·h/mL
MRT last [24]: 8.48 h
MRT inf [25]: 14.5 h
CLz/F [26]: 389.8 mL/min/kg
Vd/F [27]: 370 L/kg
VRT(t) [28]: 40.43 hr2
VRT [29]: 256.28 hr2

COc1c(/C=C/C(=O)c2ccc(O)cc2)cc(CC=C(C)C)c(O)c1O
Activity [1]: Dose-dependent effect
fold change (FC) [2]: 3.39
Activity [3]: Toxic

CC(C)=CCc1cc([C@@H]2CC(=O)c3ccc(O)cc3O2)cc2c1OC(C)(C)C=C2
fold change (FC) [2]: 1.84

COc1cc(-c2coc3cc(O)ccc3c2=O)ccc1O
fold change (FC) [2]: 1.12
